This test deals with T1, L-asparaginase (N-SMASP).
T1 construct: native enzyme purified from culture supernatant of chloramphenicol-selected colonies (ammonium sulfate, Sephadex G-100); single 17 kDa band on SDS-PAGE
Kind of test: Nessler ammonia release assay, Lineweaver-Burk. It counts as biochemical, Stenotrophomonas maltophilia. To be noted: 0.05 M Tris-HCl pH 8.6, 37 °C.

As a reminder, the Km is the substrate concentration at which the rate is half of its maximum.

Take `NC(=O)C[C@H](N)C(=O)O` [L-asparagine]: the Km came out at 41.6 mM.

Values taken from PMC11069494, “Production of highly cytotoxic and low immunogenic L-asparaginase from Stenotrophomonas maltophilia EMCC2297” (AMB Express, 2024).
